Data on 11 compounds can be found in ChEMBL document CHEMBL1125067, “Synthesis and structural requirements of N-substituted norapomorphines for affinity and activity at dopamine D-1, D-2, and agonist receptor sites in rat brain” (J Med Chem, 1990).

For orientation: Ki means a dissociation constant, usually derived from enzyme kinetics or from competition with a known ligand. A high value points to weaker binding.

One experiment concerns Rattus norvegicus. The experiment in a line: Stereotyped behavior was tested in rats at (ip) administration of 3 mg/kg (N=6).scores were compared as the percent of that obtained with apomorphine. The class given is functional.
A further experiment addresses D(1A) dopamine receptor (Rattus norvegicus, UniProt P18901).
The next experiment has as its target D(2) dopamine receptor (Rattus norvegicus, UniProt P61169).

Some results are limits rather than exact numbers.

Sequence of D(1A) dopamine receptor (P18901 whole entry): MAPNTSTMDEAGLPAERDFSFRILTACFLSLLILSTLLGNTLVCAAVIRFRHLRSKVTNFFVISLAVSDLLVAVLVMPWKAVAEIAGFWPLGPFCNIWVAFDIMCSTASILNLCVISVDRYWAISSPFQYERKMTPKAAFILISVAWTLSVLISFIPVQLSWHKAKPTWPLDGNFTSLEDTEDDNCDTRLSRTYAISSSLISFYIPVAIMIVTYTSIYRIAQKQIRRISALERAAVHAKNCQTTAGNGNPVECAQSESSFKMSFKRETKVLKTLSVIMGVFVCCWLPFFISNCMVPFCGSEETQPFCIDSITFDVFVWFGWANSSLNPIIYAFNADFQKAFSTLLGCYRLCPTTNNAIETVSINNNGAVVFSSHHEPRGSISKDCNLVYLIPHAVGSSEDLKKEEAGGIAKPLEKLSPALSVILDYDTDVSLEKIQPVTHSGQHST
Sequence of D(2) dopamine receptor (P61169 whole entry): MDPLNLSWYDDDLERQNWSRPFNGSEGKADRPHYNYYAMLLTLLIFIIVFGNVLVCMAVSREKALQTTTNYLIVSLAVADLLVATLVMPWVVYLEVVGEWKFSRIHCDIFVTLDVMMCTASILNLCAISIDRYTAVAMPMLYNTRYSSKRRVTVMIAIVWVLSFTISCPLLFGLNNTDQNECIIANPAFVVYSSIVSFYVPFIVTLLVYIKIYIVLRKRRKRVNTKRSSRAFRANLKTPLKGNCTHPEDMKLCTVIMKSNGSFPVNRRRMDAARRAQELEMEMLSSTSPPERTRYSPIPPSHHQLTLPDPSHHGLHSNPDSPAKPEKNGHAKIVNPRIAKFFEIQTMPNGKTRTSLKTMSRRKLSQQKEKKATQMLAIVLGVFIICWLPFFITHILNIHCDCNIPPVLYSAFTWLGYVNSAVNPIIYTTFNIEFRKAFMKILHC
Description for D(1A) dopamine receptor: Dopamine receptor D1 affinity was tested in vitro against corpus striatum from rat brain membranes
Description for D(2) dopamine receptor: Dopamine receptor D2 affinity was tested in vitro against corpus striatum from rat brain membranes

In the experiment on Rattus norvegicus, `CCCN1CCc2cccc3c2[C@H]1Cc1ccc(O)c(O)c1-3.Cl` registered a Stereotypy score of 99.

Turning to `CC(C)CN1CCc2cccc3c2[C@H]1Cc1ccc(O)c(O)c1-3.Cl`, the values for the Ki at D(1A) dopamine receptor and on D(2) dopamine receptor were greater than 10 µM and 0.49 µM, respectively. The compound further displayed a Stereotypy score in the experiment with Rattus norvegicus of 3. Turning to `Cl.Oc1ccc2c(c1O)-c1cccc3c1[C@@H](C2)NCC3`, on D(1A) dopamine receptor, affinity was put at a Ki of 0.39 µM. The Stereotypy score in the experiment with Rattus norvegicus was determined as 26.

`Cl.Oc1ccc2c(c1O)-c1cccc3c1[C@@H](C2)N(CC1CC1)CC3`: the Ki on D(1A) dopamine receptor amounted to 0.73 µM; at D(2) dopamine receptor, 0.00043 µM. The compound further came in with a Stereotypy score in the experiment with Rattus norvegicus of 106. `Br.C=CCN1CCc2cccc3c2[C@H]1Cc1ccc(O)c(O)c1-3` had a Ki on D(1A) dopamine receptor of 0.615 µM. Also, the Stereotypy score with Rattus norvegicus amounted to 86.

The compound `CCN1CCc2cccc3c2[C@H]1Cc1ccc(O)c(O)c1-3.Cl` displayed a Ki at D(1A) dopamine receptor of 0.124 µM. The Stereotypy score in the experiment with Rattus norvegicus came out at 97.

Compound `Cl.OCCN1CCc2cccc3c2[C@H]1Cc1ccc(O)c(O)c1-3` had a Ki on D(1A) dopamine receptor greater than 10 µM. For the same compound, the Stereotypy score in the experiment with Rattus norvegicus is recorded as 0. For the compound `Cl.Oc1ccc2c(c1O)-c1cccc3c1[C@@H](C2)N(CC(F)(F)F)CC3`, at D(1A) dopamine receptor, the Ki was greater than 50 µM. The compound also had a Stereotypy score with Rattus norvegicus of 2.

Take `CC(C)N1CCc2cccc3c2[C@H]1Cc1ccc(O)c(O)c1-3.Cl`: the Ki at D(1A) dopamine receptor was greater than 10 µM. In the experiment with Rattus norvegicus, the Stereotypy score worked out at 0. `Oc1ccc2c(c1O)-c1cccc3c1[C@@H](C2)N(CC(F)(F)C(F)(F)F)CC3`: the Ki at D(1A) dopamine receptor is greater than 50 µM. For `CN1CCc2cccc3c2[C@H]1Cc1ccc(O)c(O)c1-3.CN1CCc2cccc3c2[C@H]1Cc1ccc(O)c(O)c1-3.Cl.Cl.O` [APOMORPHINE HYDROCHLORIDE], the Stereotypy score with Rattus norvegicus is reported as 100.
